Assays:
[1] = molecular target: T1, transthyretin (L55P-TTR) (Homo sapiens, UniProt P02766, L75P); test: ligand fluorescence titration (blue shift of OleA emission); noisier, and no stabilization in urea unfolding; format: binding
T1 construct: recombinant L55P-TTR, homotetramer

[2] = molecular target: T2, transthyretin (wt-TTR) (Homo sapiens, UniProt P02766); test: ligand fluorescence titration (blue shift of OleA emission, fitted to a binding equilibrium); urea unfolding shows stabilization
T2 construct: recombinant wt-TTR, homotetramer

## C/C=C1/C(O)OC=C(C(=O)OC)[C@H]1CC(=O)OCCc1ccc(O)c(O)c1 (mixture of isomers) [OleA, oleuropein aglycone]
[1]
  Kd: 3.12 ± 0.62 µM
[2]
  Kd: 3.23 ± 0.32 µM
